Reference: PMC8302598, “Rapid discovery of self-assembling peptides with one-bead one-compound peptide library” (Nature Communications, 2021)

Tests used:
[1] = Critical micelle concentration (CMC); type: physicochemical; conditions: soluble HPLC-purified peptide, aqueous
Protocol: To estimate the propensity of the identified peptides to self-assemble, the critical micelle concentrations (CMC) of the eight positive peptides and four negative peptides were determined, and the results are shown in Table 1 and Supplementary Figs. 13, 14. The CMC of all the eight positive peptides were detectable and found to range between 8.4 and 14.8 μM, indicating the propensity for these peptides to self-assemble under aqueous environment. […] Hydrophobicity of peptides can be predicted by the value of GRAVY[28] with more negative value for more hydrophilic peptides. Of the four negative assembling peptides, two have a negative GRAVY value. […] Experimental testing, such as the screening strategy described in this work, is needed. This is because multiple factors, including hydrophobicity, hydrogen-bonding, electrostatic interactions, and positions of each residue within the peptides, all contribute to the assembling and final morphology of the self-assembled nano-structure.

[2] = TEM morphology and size of peptide nano-assemblies over time; type: physicochemical; conditions: for Initial nanostructure (TEM): DMSO stock 5 mM diluted 100X with water, 50 μM (legend: 40 μM), 1% DMSO, fixed immediately (0 h); for Nanoparticle size by TEM, 0 h / Nanoparticle size by TEM, 4 h: H2O with 1% DMSO, 40 μM / 50 μM
Text: Self-assembling peptides with good biocompatibility may be used to construct nanocarriers for drug delivery. We recently reported the use of FFVLK, the reverse sequence of KLVFF, as a self-aggregating β-sheet forming domain for the delivery of HER2 targeting peptides for successful treatment of breast cancer in xenograft models. Such FFVLK containing peptide is able to self-assemble into nanoparticles. Upon intravenous administration, the FFVLK-nanoparticle was able to transform into nanofibrillar network when encountering HER2 at the tumor sites. To investigate the morphology of the nano-assembly formed by the eight self-assembling peptides, we dissolved each of these peptides in DMSO (5 mM) and then diluted them 100X with water at a final peptide concentration of 50 μM to induce spontaneous self-assembly. Each sample was fixed immediately after peptide solution preparation and at 4 h time point for subsequent TEM processing and analysis. As clearly shown in Fig. 4a, all eight self-assembling peptides initially formed some nanostructures: nanoparticles for ITSVV, YFTEF, ISDNL, LDFPI, FAGFT, FGFDP, and FTISD; nanofibers for FFVDF. […] LDFPI (8 nm) maintained the particulate morphology without changing of diameter in 4 h. FFVDF formed nanofibers at 0 and 4 h. […] Time-dependent size variations of pentapeptides in water were further confirmed by DLS spectra (Supplementary Fig. 18). The initial diameters of nanoparticles formed by seven pentapeptides were larger than that observed by TEM, probably due to hydration radius. The size of the nanostructure increased over time, correlating well with the morphologic transformation. […] Circular dichroism (CD) was used to monitor the secondary structures of the nano-assembly of the eight self-assembling peptides over time (Supplementary Fig. 20).
Pentapeptides monomers were dissolved in DMSO at a concentration of 5.0 mM, followed by quick injection into water at a volume ratio of 1:99 for DMSO and H2O to obtain the nanomaterials solution (50 μM). For 30 mM pentapeptide solution, the pentapeptide was dissolved in water and sonicated for 3 min.
The pentapeptide solution with the concentration of 20 μM (10 μL) was placed dropwise onto a copper mesh for 5 min, then most of the liquid was removed through a filter paper. Ten microliters of uranyl acetate solution were employed to stain the samples for 5 min, followed by drying the spare liquid with the filter. Finally, the copper mesh was washed with 10 μL of deionized water, which was blotted after staining and drying at room temperature. All of the samples were observed by TEM (Tecnai G2 20 S-TWIN) at an accelerating voltage of 200 kV.

Substance | CMC [1] | Initial nanostructure (TEM) [2] | Nanoparticle size by TEM, 0 h [2] | Nanoparticle size by TEM, 4 h [2]
FGFDP [self-assembling pentapeptide identified from OBOC library] | 14.8 µM | nanoparticles | – | –
YFTEF [self-assembling pentapeptide identified from OBOC library] | 11.4 µM | nanoparticles | 41 nm | 75 nm
LDFPI [self-assembling pentapeptide identified from OBOC library] | 8.4 µM | nanoparticles | 8 nm | 8 nm
FFVDF [self-assembling pentapeptide identified from OBOC library, forms nanofibers] | 14.4 µM | nanofibers | – | –

Results, then the substance that gave them:

CMC [1] | Initial nanostructure (TEM) [2] | Nanoparticle size by TEM, 0 h [2] | Nanoparticle size by TEM, 4 h [2] | Substance
13.9 µM | nanoparticles | 10 nm | 15 nm | FAGFT [self-assembling pentapeptide identified from OBOC library]
9.4 µM | nanoparticles | – | – | ISDNL [self-assembling pentapeptide identified from OBOC library]
10.04 µM | nanoparticles | – | – | FTISD [self-assembling pentapeptide identified from OBOC library]
14.8 µM | nanoparticles | – | ~ 300 nm | ITSVV [self-assembling pentapeptide identified from OBOC library]
